Consider 21 compounds from ChEMBL document CHEMBL1255193, “Structure-based optimization of pyrazolo-pyrimidine and -pyridine inhibitors of PI3-kinase” (Bioorg Med Chem Lett, 2010).

For data set [1], the target named is Phosphatidylinositol 4,5-bisphosphate 3-kinase catalytic subunit alpha isoform (Homo sapiens, UniProt P42336). Briefly: Inhibition of PI3Kalpha.
Data set [2] can be described thus: Plasma clearance in rat. It is filed as ADME, organism-based.
Data set [3] is described as follows: Solubility of the compound at pH 6.5. It is filed as physicochemical. The following applies: buffer.
A short description of data set [4]: Apparent permeability of the compound from apical to basolateral direction in MDCKI cells. It is filed as ADME, cell-based, Canis lupus familiaris. The following applies: dog, MDCK.
The test system of the next data set is MDR1. Briefly: Apparent permeability of the compound from apical to basolateral direction in MDCKI cells expressing MDR1. The data set is classed as ADME, cell-based, Canis lupus familiaris. The note with it: dog, MDCK-MDR1.
Data set [5] in a line: Oral bioavailability in rat at 5 mg/kg. It is filed as ADME, organism-based. The note with it: in vivo.
Data set [6] concerns the target Receptor-type tyrosine-protein kinase FLT3 (Homo sapiens) (UniProt P36888). Briefly: Inhibition of FLT3 at 1 uM.
The nature of data set [7]: Plasma protein binding in mouse. The data set is classed as ADME, cell-free. The following applies: read-out: PPB (converted).
The subject of data set [8] is Mus musculus. Briefly: In vivo inhibition of PI3K in human PC3 cells xenografted athymic nude mouse assessed as reduction of phosphorylated Akt level at 50 mg/kg, po after 1 hr. The data set is classed as functional. The following applies: PC-3, 1 h. A general note: In xenograft studies the graft and the host belong to different species.
Data set [9] has as its system Mus musculus. Briefly: In vivo inhibition of PI3K in human PC3 cells xenografted athymic nude mouse assessed as reduction of phosphorylated Akt level at 50 mg/kg, po after 6 hrs. It is filed as functional. The note with it: PC-3, 6 h.
Data set [10] has as its system Mus musculus. Briefly: In vivo inhibition of PI3K in human PC3 cells xenografted athymic nude mouse assessed as reduction of phosphorylated PRAS40 level at 50 mg/kg, po after 1 hr. It is filed as functional. The note with it: PC-3, 1 h.
For data set [11], the system named is Mus musculus. Briefly: In vivo inhibition of PI3K in human PC3 cells xenografted athymic nude mouse assessed as reduction of phosphorylated PRAS40 level at 50 mg/kg, po after 6 hrs. The data set is classed as functional. The following applies: PC-3, 6 h.
Data set [12] has as its system Mus musculus. Briefly: In vivo inhibition of PI3K in human PC3 cells xenografted athymic nude mouse assessed as reduction of phosphorylated S6RP level at 50 mg/kg, po after 1 hr. The data set is classed as functional. The following applies: PC-3, 1 h.
Data set [13] relates to Mus musculus. Briefly: In vivo inhibition of PI3K in human PC3 cells xenografted athymic nude mouse assessed as reduction of phosphorylated S6RP level at 50 mg/kg, po after 6 hrs. The data set is classed as functional. The following applies: PC-3, 6 h.
For data set [14], the target named is DNA-dependent protein kinase catalytic subunit (Homo sapiens, UniProt P78527). Briefly: Inhibition of DNA-PK.
Data set [15] addresses Serine/threonine-protein kinase mTOR (Homo sapiens, UniProt P42345). Briefly: Inhibition of mTOR. The following applies: read-out: Ki(app).
The nature of data set [16]: Plasma clearance in human PC3 cells xenografted athymic nude mouse. The data set is classed as ADME, organism-based, PC-3.
The nature of data set [17]: Oral bioavailability in human PC3 cells xenografted athymic nude mouse at 5 mg/kg. The data set is classed as ADME, organism-based, PC-3. The note with it: in vivo.
A short description of data set [18]: Volume of distribution at steady state in human PC3 cells xenografted athymic nude mouse. The following applies: in vivo, read-out: Vdss. The data set is classed as ADME, organism-based, PC-3.
Data set [19] can be described thus: Inhibition of human Cytochrome P450. The data set is classed as ADME.
Data set [20] is described as follows: Metabolic stability in human hepatocytes assessed as compound remaining after 3 hrs. It is filed as ADME, cell-based, Hepatocyte. The note with it: read-out: Stability.
Data set [21] can be described thus: Metabolic stability in mouse hepatocytes assessed as compound remaining after 3 hrs. The note with it: read-out: Stability. It is filed as ADME, cell-based, Hepatocyte.
The next data set relates to MCF7. Briefly: Cytotoxicity against human MCF7 cells. The data set is classed as functional, cell-based.
Data set [22] relates to Bcrp1. Briefly: Apparent permeability of the compound from apical to basolateral direction in MDCK2 cells expressing Bcrp1. The data set is classed as ADME, cell-based, Canis lupus familiaris, MDCK-II. The following applies: dog.
A short description of data set [23]: Ratio of permeability from basolateral to apical over apical to basolateral side in MDCKI cells. The following applies: dog.
Data set [24] can be described thus: Ratio of permeability from basolateral to apical over apical to basolateral side in MDCKI cells expressing MDR1. The following applies: dog.
Data set [25] in a line: Ratio of permeability from basolateral to apical over apical to basolateral side in MDCK2 cells expressing Bcrp1. The following applies: dog, mdck-ii.
For data set [26], the system named is Bcrp1. Briefly: Apparent permeability of the compound from apical to basolateral direction in MDCK2 cells expressing Bcrp1 in presence of fumitremorgin C. The note with it: dog, with fumitremorgin C. The data set is classed as ADME, cell-based, Canis lupus familiaris, MDCK-II.
Data set [27] in a line: Ratio of permeability from […] side in MDCK2 cells expressing Bcrp1 in presence of fumitremorgin C. The data set is classed as ADME, cell-based, Canis lupus familiaris. The note with it: dog, mdck-ii.

SMILES strings stand for the structures. Values after ≈ are worked out from the molar mass of the structure shown. A value given as a limit tells only on which side of the number the result lay.

Chain of Phosphatidylinositol 4,5-bisphosphate 3-kinase catalytic subunit alpha isoform (P42336 whole entry, canonical isoform): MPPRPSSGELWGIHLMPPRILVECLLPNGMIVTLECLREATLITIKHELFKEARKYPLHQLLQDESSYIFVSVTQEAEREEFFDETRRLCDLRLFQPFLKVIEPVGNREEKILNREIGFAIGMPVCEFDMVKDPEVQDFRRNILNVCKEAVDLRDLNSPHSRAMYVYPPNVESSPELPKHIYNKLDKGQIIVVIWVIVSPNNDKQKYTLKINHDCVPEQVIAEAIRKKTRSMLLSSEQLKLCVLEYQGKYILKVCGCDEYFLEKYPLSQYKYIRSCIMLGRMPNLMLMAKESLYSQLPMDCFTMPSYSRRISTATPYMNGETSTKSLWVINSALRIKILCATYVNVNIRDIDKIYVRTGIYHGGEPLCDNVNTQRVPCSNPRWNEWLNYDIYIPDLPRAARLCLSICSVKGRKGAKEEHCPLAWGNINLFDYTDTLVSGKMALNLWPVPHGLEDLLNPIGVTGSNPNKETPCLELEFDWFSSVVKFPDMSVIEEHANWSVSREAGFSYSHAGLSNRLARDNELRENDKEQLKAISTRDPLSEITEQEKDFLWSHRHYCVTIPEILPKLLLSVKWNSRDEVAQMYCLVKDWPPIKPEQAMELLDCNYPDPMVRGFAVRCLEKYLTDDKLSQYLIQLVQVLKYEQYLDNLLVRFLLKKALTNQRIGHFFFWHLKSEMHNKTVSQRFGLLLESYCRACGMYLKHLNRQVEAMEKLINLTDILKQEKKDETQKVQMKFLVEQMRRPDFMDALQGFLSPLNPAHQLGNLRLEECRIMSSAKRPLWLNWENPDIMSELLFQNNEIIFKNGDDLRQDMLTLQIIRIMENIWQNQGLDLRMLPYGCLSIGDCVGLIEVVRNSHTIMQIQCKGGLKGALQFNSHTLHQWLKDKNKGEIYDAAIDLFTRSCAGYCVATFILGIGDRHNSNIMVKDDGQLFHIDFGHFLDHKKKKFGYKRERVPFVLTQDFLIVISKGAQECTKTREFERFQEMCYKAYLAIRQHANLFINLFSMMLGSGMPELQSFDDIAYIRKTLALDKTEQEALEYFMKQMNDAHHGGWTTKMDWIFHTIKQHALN
Chain of Receptor-type tyrosine-protein kinase FLT3 (Homo sapiens) (P36888 whole entry): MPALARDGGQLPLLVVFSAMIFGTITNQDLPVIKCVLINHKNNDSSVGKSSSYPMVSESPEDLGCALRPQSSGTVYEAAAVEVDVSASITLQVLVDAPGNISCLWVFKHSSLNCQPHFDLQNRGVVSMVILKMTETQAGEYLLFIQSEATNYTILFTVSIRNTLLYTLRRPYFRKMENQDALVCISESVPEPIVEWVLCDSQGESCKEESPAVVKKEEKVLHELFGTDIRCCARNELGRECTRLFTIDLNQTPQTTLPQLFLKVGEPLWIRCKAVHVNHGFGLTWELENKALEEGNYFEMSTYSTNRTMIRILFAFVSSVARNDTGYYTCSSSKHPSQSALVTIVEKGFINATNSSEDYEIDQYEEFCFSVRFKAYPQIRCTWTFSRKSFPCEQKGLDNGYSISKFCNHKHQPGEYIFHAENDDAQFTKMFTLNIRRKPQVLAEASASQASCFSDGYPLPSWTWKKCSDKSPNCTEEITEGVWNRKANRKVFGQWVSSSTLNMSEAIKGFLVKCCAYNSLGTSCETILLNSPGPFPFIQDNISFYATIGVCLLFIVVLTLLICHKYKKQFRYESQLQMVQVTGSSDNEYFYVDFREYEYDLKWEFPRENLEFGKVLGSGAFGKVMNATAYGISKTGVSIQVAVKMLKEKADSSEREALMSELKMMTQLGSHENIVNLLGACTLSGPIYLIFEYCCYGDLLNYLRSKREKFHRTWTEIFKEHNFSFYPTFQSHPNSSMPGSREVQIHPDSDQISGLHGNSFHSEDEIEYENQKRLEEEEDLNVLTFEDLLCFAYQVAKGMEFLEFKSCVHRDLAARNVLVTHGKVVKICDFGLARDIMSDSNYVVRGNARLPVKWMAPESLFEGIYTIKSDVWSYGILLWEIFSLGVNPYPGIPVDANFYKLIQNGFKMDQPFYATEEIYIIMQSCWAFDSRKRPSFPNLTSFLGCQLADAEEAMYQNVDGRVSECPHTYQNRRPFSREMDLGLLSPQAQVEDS

The IC50 is the concentration that gives 50% inhibition. A low value points to higher potency. Turning to `COc1cccc(Nc2nc(-c3cccc(C(N)=O)c3)nc3c2cnn3C)c1`, in data set [1], the IC50 was determined as 72 nM.
Still for that read-out and setting: to `COc1cccc(Nc2nc(N3CCCCC3)nc3c2cnn3C)c1` belongs 359 nM; to `COc1cccc(Nc2nc(-c3cccc4onc(C)c34)nc3c2cnn3C)c1`, 1.7 nM; to `CNC(=O)c1cccc(-c2nc(Nc3cccc(OC)c3)c3cnn(C)c3n2)c1`, 3640 nM.
`COc1cccc(Nc2nc(-c3cnc(N)nc3)nc3c2cnn3C)c1` returned an IC50 in data set [1] of 16 nM.
In general, clearance refers to the rate of elimination divided by the concentration. A low value points to inefficient removal. As a reminder, the solubility is the dissolved amount per volume that the medium holds. A higher solubility goes with much dissolved substance. A word on the Papp A→B: it is the apparent permeability from the apical to the basolateral side of a cell layer. What is called inhibition is the percentage by which the read-out fell short of the control. A word on the inhibition in vivo: it is the relative decrease from the control value, in per cent. Take `Cn1ncc2c(Oc3ccc(S(C)(=O)=O)cc3)cc(-c3cccc4[nH]ncc34)nc21`: the clearance in [2] was found to be 8.4 mL/min/kg; in data set [16] it was 12.7 mL/min/kg. The compound further yielded a solubility in data set [3] of 15 µg/mL (≈ 35.8 µM). In addition, the values for the Papp A→B (in [4]; in the data set with MDR1) were 13.9 ×10⁻⁶ cm/s and 1.2 ×10⁻⁶ cm/s, respectively. The results for the bioavailability in data set [5] and in data set [17] were 107% and 110%, respectively. Besides, the inhibition in [6] was determined as 27%. Moreover, in data set [7], the fraction unbound was 0.012. Besides, the inhibition in vivo at 50 mg/kg in the data set on Mus musculus [8] came to 44%; with Mus musculus [9], 34%; in the data set on Mus musculus [10], 23%; in the data set on Mus musculus [11], 11%; in the data set on Mus musculus [12], 36%; in the data set on Mus musculus [13], 17%. Further, the IC50 in data set [14] was 1020 nM; in [19] it was > 20000 nM. In addition, in data set [15], the Ki is > 10000 nM. Moreover, the Vd in [18] was 1.1 L/kg. Also, the remaining at 3 h in [20] came out at 94%; in [21], 100%.
As to `COc1cccc(Nc2nc(-c3cccc4[nH]nc(N)c34)nc3c2cnn3C)c1`, half-maximal inhibition in [1] (IC50) required 11 nM.
For orientation: EC50 means the midpoint of the concentration-response curve. Higher therefore signals a less potent agent. Consider `CN1CCC(Nc2nc(-c3cccc4[nH]ncc34)nc3c2cnn3C)CC1`, for which the IC50 in data set [1] was 8.3 nM. The response in the data set on MCF7 was half-maximal at 1500 nM (EC50). The clearance in [2] is 176 mL/min/kg.
Compound `Cn1ncc2c(NCC(C)(C)CO)nc(-c3cccc4[nH]ncc34)nc21` showed an IC50 in data set [1] of 1.1 nM. This compound also had a clearance in data set [2] of 103 mL/min/kg.
In the case of `COc1cccc(Nc2nc(-c3cccnc3)nc3c2cnn3C)c1`, the IC50 in data set [1] turned out to be 29 nM.
In turn, `Cn1ncc2c(Oc3ccc(S(C)(=O)=O)cc3)nc(-c3cccc4[nH]ncc34)nc21` came in with an IC50 in data set [1] of 3 nM. In addition, in data set [2], the clearance was determined as 2 mL/min/kg. Moreover, the solubility in data set [3] was found to be 16 µg/mL (≈ 38.1 µM). Also, the Papp A→B in [4] was found to be 2.5 ×10⁻⁶ cm/s; with MDR1, 0.8 ×10⁻⁶ cm/s; with Bcrp1 [22], 0.05 ×10⁻⁶ cm/s. For the same compound, in data set [5], the bioavailability was found to be 29%. Further, the Ratio in data set [23] came out at 0.7; in data set [24] it was 4.2; in data set [25], 55.1.
Turning to `Cn1ncc2c(Nc3ccc(S(C)(=O)=O)cc3)nc(-c3cccc4[nH]ncc34)nc21`, the midpoint of inhibition in [1], the IC50, lay at 1.4 nM. In the data set with MCF7, this compound displayed a concentration for a half-maximal effect (EC50) of 87 nM. In data set [2], this compound returned a clearance of 20 mL/min/kg. Further, the solubility in data set [3] is 7.1 µg/mL (≈ 16.9 µM). For the same compound, the Papp A→B in data set [4] was found to be 0.37 ×10⁻⁶ cm/s; in the data set with MDR1 it was 0.13 ×10⁻⁶ cm/s; in the data set with Bcrp1 [22], 0.03 ×10⁻⁶ cm/s; in the data set with Bcrp1 [26] it was 0.63 ×10⁻⁶ cm/s. The bioavailability in data set [5] stood at 0%. In addition, the Ratio worked out at 17.6 in [27], 6.7 in [23], 79 in data set [24] and 311 in data set [25].
As to `Cn1ncc2c(-c3ccc(S(C)(=O)=O)cc3)nc(-c3cccc4[nH]ncc34)nc21`, in data set [1], inhibition was half-maximal at 4.9 nM (IC50). Further, the solubility in data set [3] was < 1 µg/mL. The Papp A→B is 31.5 ×10⁻⁶ cm/s in [4], 7.6 ×10⁻⁶ cm/s in the data set with MDR1 and 3.8 ×10⁻⁶ cm/s in the data set with Bcrp1 [22]. The Ratio was determined as 0.5 in data set [23], 3.2 in data set [24] and 4.8 in data set [25].
Take `COc1cccc(Nc2nc(-c3cccc(NC(C)=O)c3)nc3c2cnn3C)c1`: in data set [1], half-maximal inhibition (IC50) required 386 nM.
For the compound `Cn1ncc2c(NCCCS(C)(=O)=O)nc(-c3cccc4n[nH]cc34)nc21`, the EC50 in the data set on MCF7 turned out to be 403 nM. The clearance in [2] is 139 mL/min/kg.
Compound `COc1cccc(Nc2nc(N3CC(C)OC(C)C3)nc3c2cnn3C)c1` (stereo not drawn) returned an IC50 in [1] of 370 nM.
For the compound `COc1cccc(Nc2nc(N3CCC(O)CC3)nc3c2cnn3C)c1`, the IC50 in [1] worked out at 430 nM.
Same read-out and setting: as for `COc1cccc(Nc2nc(-c3cccc(S(C)(=O)=O)c3)nc3c2cnn3C)c1`, the figure is 56 nM; as for `COc1cccc(Nc2nc(-c3cccc4[nH]ncc34)nc3c2cnn3C)c1`, 1.4 nM.
Regarding `COc1cccc(Nc2nc(-c3cccc(OC)c3)nc3c2cnn3C)c1`, in [1], inhibition was half-maximal at 134 nM (IC50).
`COc1cccc(Nc2nc(N3CCOCC3)nc3c2cnn3C)c1` returned an IC50 in [1] of 162 nM.
